Values quoted from earlier work as cited in patent publication US7696242B2, “Hepatitis C inhibitor peptide analogs” (Boehringer Ingelheim International GmbH, priority 2004, dated 2010).

Tested on: hepatitis C virus
Conditions: two day clinical trial, patients infected with the hepatitis C virus

COc1ccc2c(O[C@@H]3C[C@H]4C(=O)N[C@]5(C(=O)O)C[C@H]5/C=C\CCCCC[C@H](NC(=O)OC5CCCC5)C(=O)N4C3)cc(-c3csc(NC(C)C)n3)nc2c1 [BILN 2061]
reduction of viral loads in patients: effective in rapidly reducing viral loads
